Each structure is given as a SMILES string. Calls of active or inactive are those of the source. Bounds are passed on as bounds.

In ChEMBL document CHEMBL1201862, “PubChem BioAssay data set” (2004) one finds AC50, IC50 and EC50 data, which are given here for 12 compounds.

One experiment concerns INS1. The experiment is described as follows: INS-1E survival protection against cytokine death – cell-based, luminescence, retest, dose response (AID 449756).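 Also: cell death triggered by IL-1 beta plus TNF-alpha plus IFN-gamma mixture; protective hits raise ATP signal compared with cytokine alone wells.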 The class given is functional. The conditions noted are these: Rattus norvegicus.
Take `Cc1cccc(CSC(Nc2ccc(F)cc2)=C(C#N)C#N)c1`: the AC50 was 4.83 µM (active).

Another experiment addresses T1, Protein skinhead-1 (Caenorhabditis elegans, UniProt P34707).
T1 sequence (P34707 whole entry): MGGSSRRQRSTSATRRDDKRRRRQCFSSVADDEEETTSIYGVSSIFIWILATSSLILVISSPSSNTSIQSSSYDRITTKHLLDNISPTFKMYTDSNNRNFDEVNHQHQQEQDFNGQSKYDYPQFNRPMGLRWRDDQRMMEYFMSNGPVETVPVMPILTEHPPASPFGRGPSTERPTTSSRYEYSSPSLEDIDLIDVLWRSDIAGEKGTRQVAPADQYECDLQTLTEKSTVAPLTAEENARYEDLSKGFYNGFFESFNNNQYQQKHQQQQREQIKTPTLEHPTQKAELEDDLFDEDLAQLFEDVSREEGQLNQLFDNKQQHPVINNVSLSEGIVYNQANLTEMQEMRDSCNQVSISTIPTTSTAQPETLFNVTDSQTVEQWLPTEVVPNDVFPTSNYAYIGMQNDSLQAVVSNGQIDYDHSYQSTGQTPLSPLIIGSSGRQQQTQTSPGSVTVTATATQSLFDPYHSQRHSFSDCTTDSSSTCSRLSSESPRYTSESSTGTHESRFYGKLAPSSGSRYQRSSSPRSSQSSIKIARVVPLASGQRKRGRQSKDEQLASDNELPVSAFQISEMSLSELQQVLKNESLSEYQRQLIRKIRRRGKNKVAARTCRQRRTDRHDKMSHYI
It is filed as functional.
Conditions: not given
For the compound `C(=C\c1ccc2ccccc2n1)/c1ccccc1`, the IC50 was 24.8 µM (active).
Same read-out and setting: the value for `CCCCOC(=O)Nc1ccc(C(C)C)cc1` was 42.4 µM (active); that for `O=C(/C=C/c1ccco1)N1CCc2ccccc21` was 48.6 µM (active).
On to `Cc1cc(C(=O)CSc2nnc(-c3cccs3)n2Cc2ccccc2)c(C)n1C`, for which the IC50 was > 100 µM (inactive).
Still for that read-out and setting: the same measure for `CCOc1ccc2c(=O)c(Oc3ccccc3OCC)coc2c1`: > 100 µM (inactive); for `C(#Cc1ccc2c(c1)COc1c3ccccc3nn1-2)c1ccccc1`: > 100 µM (inactive); for `Cc1cc(C)c(NC(=O)C[S+]([O-])CC(=O)Nc2ccc(N3CCOCC3)cc2)c(C)c1` (centres undefined): > 100 µM (inactive).
With `CC(=O)Nc1ccc(NC(=O)C2Cc3c(-c4cccc(F)c4)ccnc3O2)cc1` (centres undefined), the IC50 was > 100 µM (inactive).
Turning to `CC1OC(c2ccccc2)OC2COC(c3ccccc3)OC12` (centres undefined), the IC50 was > 100 µM (inactive).

The target in a further experiment is T2, RNA-binding protein pos-1 (Caenorhabditis elegans, UniProt G5EF15).
T2 sequence (G5EF15 whole entry): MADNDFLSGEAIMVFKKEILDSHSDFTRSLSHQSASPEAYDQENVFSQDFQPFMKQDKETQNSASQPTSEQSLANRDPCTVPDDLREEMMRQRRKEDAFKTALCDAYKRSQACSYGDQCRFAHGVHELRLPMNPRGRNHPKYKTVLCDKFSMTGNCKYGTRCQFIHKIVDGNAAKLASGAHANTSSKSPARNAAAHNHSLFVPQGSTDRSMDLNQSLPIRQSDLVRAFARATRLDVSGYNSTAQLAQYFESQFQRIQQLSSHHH
As to the kind of experiment: disruptors of C. elegans POS-1 RNA interaction – biochemical, fluorescence polarization, dose response (AID 1964).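 Also: purified POS-1 fused to maltose binding protein made in E. coli; potency of compounds blocking POS-1 binding to fluorescent RNA.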
Conditions: not given
As for `N#C/C(=C/c1cccn1-c1cccc(C(=O)O)c1)c1ccc(F)cc1`, the EC50 is reported as > 300 µM (not active).
On the same count and under the same terms, the same measure for `C(#Cc1ccc2c(c1)COc1c3ccccc3nn1-2)c1ccccc1`: > 300 µM (not active).

System in a further experiment: not listed separately
As to the kind of experiment: Luminescence Cell-Based Dose Response HTS to Identify Activators of Luciferase Translation or Activity in H4 […] Cells. [Related pubchem assays: 1829 (Project Summary), 1814 (Primary HTS)]. It is filed as functional.
Conditions: not given
In the case of `CCOc1ccc2c(=O)c(Oc3ccccc3OCC)coc2c1`, the EC50 was 7.99 µM (active).

System in the next experiment: not listed separately
The experiment is described as follows: Luminescence Cell-Based Dose Confirmation HTS to Identify Activators of 5'UTR Stem-Loop Driven Alpha-Synuclein mRNA Translation in H4 Neuroglioblastoma Cells. [Related pubchem assays: 1829 (Project Summary), 1814 (Primary HTS)].
Conditions: not given
It is filed as functional.
In the case of `CCOc1ccc2c(=O)c(Oc3ccccc3OCC)coc2c1`, the EC50 is 7.35 µM (active).

The test system of the next experiment is H4. The experiment is described as follows: Luminescence Cell-Based Dose Response HTS to Identify Activators of 5'UTR Stem-Loop Driven Prion Protein mRNA Translation in H4 Neuroglioblastoma Cells. [Related pubchem assays: 1829 (Project Summary), 1814 (Primary HTS)]. It is filed as functional. The conditions noted are these: Homo sapiens.
As for `CCOc1ccc2c(=O)c(Oc3ccccc3OCC)coc2c1`, the EC50 is 19.3 µM (active).

The next experiment addresses T3, Zinc finger protein mex-5 (Caenorhabditis elegans, UniProt Q9XUB2).
T3 sequence (Q9XUB2 whole entry): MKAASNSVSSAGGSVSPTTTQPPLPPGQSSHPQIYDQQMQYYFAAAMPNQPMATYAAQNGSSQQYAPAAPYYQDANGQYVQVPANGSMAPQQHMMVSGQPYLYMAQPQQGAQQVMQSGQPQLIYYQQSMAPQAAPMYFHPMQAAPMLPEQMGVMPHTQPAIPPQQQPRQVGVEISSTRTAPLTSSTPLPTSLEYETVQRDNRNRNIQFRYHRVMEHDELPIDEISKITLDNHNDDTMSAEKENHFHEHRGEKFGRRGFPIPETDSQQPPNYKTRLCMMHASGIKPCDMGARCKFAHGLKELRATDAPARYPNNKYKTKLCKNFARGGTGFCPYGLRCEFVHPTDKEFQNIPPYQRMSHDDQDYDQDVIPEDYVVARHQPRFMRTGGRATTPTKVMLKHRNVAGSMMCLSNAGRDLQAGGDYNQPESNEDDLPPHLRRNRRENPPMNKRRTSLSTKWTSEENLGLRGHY
As to the kind of experiment: potency of MEX-5 RNA-binding blockers – biochemical, C. elegans, fluorescence polarization, dose response (AID 1960).
Conditions: not given
`N#C/C(=C/c1cccn1-c1cccc(C(=O)O)c1)c1ccc(F)cc1`: the EC50 is reported as > 300 µM (not active).
With `C(#Cc1ccc2c(c1)COc1c3ccccc3nn1-2)c1ccccc1`, the EC50 is 169 µM (active).

System in a further experiment: not listed separately
The experiment is described as follows: Luminescence Cell-Based Dose Retest to Confirm Inhibitors of Cancer Stem Cells. [Related pubchem assays (depositor defined):AID2717, AID2721]. It is filed as functional. The settings on record: Homo sapiens.
On to `CS(=O)(=O)c1ccc(C(=O)OCC(=O)NC23CC4CC(CC(C4)C2)C3)cc1[N+](=O)[O-]`, for which the AC50 was 2.4 µM (active).

The target of another experiment is T4, Replicative DNA helicase DnaB (Mycobacterium tuberculosis, UniProt P9WMR3).
T4 sequence (P9WMR3 whole entry): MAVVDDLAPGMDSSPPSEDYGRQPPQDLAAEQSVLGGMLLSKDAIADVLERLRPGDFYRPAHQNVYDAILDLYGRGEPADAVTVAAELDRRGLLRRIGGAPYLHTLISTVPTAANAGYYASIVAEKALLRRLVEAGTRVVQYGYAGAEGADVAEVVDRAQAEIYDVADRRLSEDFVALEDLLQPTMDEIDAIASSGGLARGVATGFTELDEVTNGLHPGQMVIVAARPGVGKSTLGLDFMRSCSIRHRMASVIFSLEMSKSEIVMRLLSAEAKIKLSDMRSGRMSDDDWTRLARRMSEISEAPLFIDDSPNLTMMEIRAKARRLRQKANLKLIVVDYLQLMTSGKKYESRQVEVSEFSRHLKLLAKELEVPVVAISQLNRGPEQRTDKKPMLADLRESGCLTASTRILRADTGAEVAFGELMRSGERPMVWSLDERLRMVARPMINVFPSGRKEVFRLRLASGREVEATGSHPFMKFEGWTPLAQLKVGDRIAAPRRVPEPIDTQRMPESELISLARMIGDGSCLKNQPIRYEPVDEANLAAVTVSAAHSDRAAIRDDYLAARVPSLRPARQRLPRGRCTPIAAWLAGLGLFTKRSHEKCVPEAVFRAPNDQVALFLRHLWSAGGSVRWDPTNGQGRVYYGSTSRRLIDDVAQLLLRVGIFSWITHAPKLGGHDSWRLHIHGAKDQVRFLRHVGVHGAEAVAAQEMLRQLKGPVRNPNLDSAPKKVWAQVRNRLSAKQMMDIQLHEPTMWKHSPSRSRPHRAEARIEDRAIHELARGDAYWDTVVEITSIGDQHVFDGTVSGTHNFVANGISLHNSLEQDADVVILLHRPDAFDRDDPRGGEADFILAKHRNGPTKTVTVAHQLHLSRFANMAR
The experiment is described as follows: DnaB intein splicing inhibitors, dose response, biochemical, cell-free fluorescence (AID 449749). The class given is functional.
Conditions: not given
For the compound `CS(=O)(=O)c1ccc(C(=O)OCC(=O)NC23CC4CC(CC(C4)C2)C3)cc1[N+](=O)[O-]`, the AC50 was 1.18 µM (active).
Still for that read-out and setting: the same measure for `Cc1cccc(CSC(Nc2ccc(F)cc2)=C(C#N)C#N)c1`: 7.03 µM (active); for `N#C/C(=C/c1cccn1-c1cccc(C(=O)O)c1)c1ccc(F)cc1`: 14.1 µM (active).

In the next experiment the target is T5, Protein RecA (Mycobacterium tuberculosis, UniProt P9WHJ3).
T5 sequence (P9WHJ3 whole entry): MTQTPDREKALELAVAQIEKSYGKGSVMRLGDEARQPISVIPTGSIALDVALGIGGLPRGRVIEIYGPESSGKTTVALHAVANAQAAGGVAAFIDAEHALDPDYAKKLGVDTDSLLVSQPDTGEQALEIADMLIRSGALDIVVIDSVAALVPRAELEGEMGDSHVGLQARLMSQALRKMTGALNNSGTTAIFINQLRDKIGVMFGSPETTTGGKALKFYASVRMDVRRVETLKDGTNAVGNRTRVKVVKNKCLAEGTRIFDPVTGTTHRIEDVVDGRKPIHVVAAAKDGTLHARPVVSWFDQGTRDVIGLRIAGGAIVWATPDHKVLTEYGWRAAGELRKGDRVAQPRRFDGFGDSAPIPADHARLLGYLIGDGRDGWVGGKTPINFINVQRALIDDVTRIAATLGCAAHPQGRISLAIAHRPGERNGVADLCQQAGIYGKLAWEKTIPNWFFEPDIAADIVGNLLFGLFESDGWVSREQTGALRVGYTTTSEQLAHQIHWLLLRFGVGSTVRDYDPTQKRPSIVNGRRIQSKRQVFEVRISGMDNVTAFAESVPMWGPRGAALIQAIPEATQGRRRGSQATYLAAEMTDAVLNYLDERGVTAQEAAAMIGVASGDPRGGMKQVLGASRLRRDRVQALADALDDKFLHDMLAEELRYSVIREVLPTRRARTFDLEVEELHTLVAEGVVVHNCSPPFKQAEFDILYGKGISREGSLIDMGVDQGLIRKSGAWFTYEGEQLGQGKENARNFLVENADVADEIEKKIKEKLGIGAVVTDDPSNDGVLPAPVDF
The experiment is described as follows: Fluorescence Cell-Free Homogeneous Dose Retest to Identify Inhibitors of RecA-Intein Splicing Activity. [Related pubchem assays (depositor defined):AID2097, AID2223, AID489010, AID492950]. The class given is functional.
Conditions: not given
In the case of `CS(=O)(=O)c1ccc(C(=O)OCC(=O)NC23CC4CC(CC(C4)C2)C3)cc1[N+](=O)[O-]`, the EC50 was 1.32 µM (active).
On the same count and under the same terms, the same measure for `Cc1cccc(CSC(Nc2ccc(F)cc2)=C(C#N)C#N)c1`: 10.9 µM (active); for `N#C/C(=C/c1cccn1-c1cccc(C(=O)O)c1)c1ccc(F)cc1`: > 380 µM (inconclusive).
